Data set [1] concerns the target T1, HDAC10 (Homo sapiens, UniProt Q969S8).
T1 construct: expressed in transfected cells
The experiment in a line: Cellular NanoBRET assay, HDAC10. Type of data set: cell-based.

A short description of data set [2]: Caverage in mice with STK11-deleted MC38 tumors. Type of data set: in vivo, mouse. The note with it: doses used in FIG. 12B and 12C.

Marks after values point to notes of the source that are not given here.

T1 sequence (Q969S8 whole entry): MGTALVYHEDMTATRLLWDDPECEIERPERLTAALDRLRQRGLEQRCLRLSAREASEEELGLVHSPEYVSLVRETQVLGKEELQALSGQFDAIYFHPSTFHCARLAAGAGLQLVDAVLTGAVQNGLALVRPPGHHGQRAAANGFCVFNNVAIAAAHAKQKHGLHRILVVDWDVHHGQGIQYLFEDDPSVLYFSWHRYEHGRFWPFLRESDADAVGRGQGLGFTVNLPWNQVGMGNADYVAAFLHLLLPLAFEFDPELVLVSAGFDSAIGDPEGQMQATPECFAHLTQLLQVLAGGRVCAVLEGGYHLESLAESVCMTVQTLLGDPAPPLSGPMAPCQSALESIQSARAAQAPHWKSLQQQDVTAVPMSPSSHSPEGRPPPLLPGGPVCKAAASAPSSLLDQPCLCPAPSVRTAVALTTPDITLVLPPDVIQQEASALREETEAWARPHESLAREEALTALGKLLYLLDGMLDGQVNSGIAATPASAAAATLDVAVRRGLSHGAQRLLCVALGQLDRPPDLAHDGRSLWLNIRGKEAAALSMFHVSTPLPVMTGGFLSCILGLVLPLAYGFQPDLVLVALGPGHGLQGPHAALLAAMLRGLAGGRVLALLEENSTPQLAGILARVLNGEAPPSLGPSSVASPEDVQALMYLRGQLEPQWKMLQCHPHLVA

By IC50 is commonly meant the concentration needed to halve the response being measured. In turn, `Nc1cc(F)ccc1NC(=O)c1ccc(CNC(=O)/C=C/c2cccnc2)cc1` [Chidamide, reference compound] registered an IC50 in data set [1] of over 30 µM.

`O=C(CCCCCCC(=O)Nc1ccccc1)NO` [Vorinostat, reference compound]: the “Cavg, u” value in data set [2] is reported as 0.132* uM.

(Values after patent US20260041653A1, “AN HDAC INHIBITOR FOR TREATING CANCER WITH A MODIFIED STK11 ACTIVITY OR EXPRESSION” (Tango Therapeutics, Inc., priority 2022, published 2026).)
